The results in this text go back to patent US11464802B2, “3-substituted piperidine compounds for Cbl-b inhibition, and use thereof” (Nurix Therapeutics, Inc., priority 2019, dated 2022).

Each structure is given as a SMILES string. Like-named read-outs stand apart in the source and are kept apart here.

The test system of test [1] is primary human total T-cells. Briefly: Primary human total T-cell activation: IL-2 secretion, Biological Example 2. In kind it is cell-based. As to conditions: 48 hours, fold change over baseline; for fold induction at 0.3 µM: inhibitor 0.3 μM; for fold induction at 1 µM: inhibitor 1 μM; for fold induction at 3 µM: inhibitor 3 μM.
For test [2], the system named is primary human total T-cells. Put plainly: Primary human total T-cell activation: CD25 surface staining, Biological Example 2. The note with it: 48 hours, fold change over baseline; for fold induction at 0.3 µM: inhibitor 0.3 μM; for fold induction at 1 µM: inhibitor 1 μM; for fold induction at 3 µM: inhibitor 3 μM. Format: cell-based.
Another test concerns the target Cbl-b (Homo sapiens (Human), UniProt Q13191). Put plainly: Cbl-b displacement assay (Cbl-b inhibition assay), TR-FRET probe displacement, Biological Example 1. Format: binding. The procedure:
Candidate compounds were evaluated for their ability to bind and inhibit Cbl-b, an E3 ubiquitin-protein ligase, as evidenced by their ability to displace a fluorophore-labeled probe (Example 46) bound to Cbl-b.
The ability of candidate compounds to displace a known inhibitor and thereby inhibit Cbl-b activity was measured by monitoring the interaction of Cbl-b with a fluorophore-labeled probe in the presence of the candidate compound. A truncated variant of Cbl-b (UniProt number Q13191; SEQ ID NO:1) containing an Avitag at its N-terminus was co-expressed with BirA biotin ligase and purified using a standard protocol (see Dou et al., Nature Structural and Molecular Biology 8: 982-987, 2013; Avidity LLC).
Fluorescently-labeled inhibitor probe was synthesized and tagged with BODIPY FL (Example 46). Cbl-b displacement assays were performed in a 384-well plate at room temperature in a 10 μL reaction volume by pre-incubating 0.5 nM Cbl-b or 0.125 nM Cbl-b (final concentration, indicated as “High” and “Low”, respectively) in an assay buffer containing 20 mM HEPES pH 7.5, 150 mM NaCl, 0.01% Triton X-100, 0.01% BSA, and 0.5 mM TCEP in the presence of a candidate compound in 1% DMSO (final concentration) for 1 hour. After incubation in the presence of the candidate compound, the plate was incubated for an additional 1 hour in the presence of an approximate EC40 binding saturation consisting of 150 nM fluorescently-labeled inhibitor probe and 2 nM Streptavidin-Terbium (Cisbio) (final concentrations). Following the 1 hour incubation, the plates were read for TR-FRET signal at 520/620 nM using an Envision plate reader (Perkin Elmer).
For orientation: In TR-FRET formats the signal depends on donor and acceptor labels being close together.

Setting [3] is: anti-CD3/anti-CD28 co-stimulation.
Setting [4] is: anti-CD3/anti-CD28 co-stimulation, read-out: IL-2 secretion CD3/CD28 1 μM.
Where [5] appears, read: anti-CD3 alone, read-out: IL-2 secretion CD3 1 μM.
Where [6] appears, read: anti-CD3/anti-CD28 co-stimulation, read-out: CD25 staining CD3/CD28 1 μM.
[7] abbreviates: anti-CD3 alone, read-out: CD25 staining CD3 1 μM.
[8] abbreviates: 0.125 nM Cbl-b final concentration (Low), read-out: Cbl-b activity IC50 (Low).
Setting [9] is: 0.5 nM Cbl-b final concentration (High), read-out: Cbl-b activity IC50 (High).
[10] abbreviates: Cbl-b concentration (High or Low) not given, read-out: IC50 values in the Cbl-b inhibition assay of Biological Example 1.

Chain of Cbl-b (Q13191 36-427): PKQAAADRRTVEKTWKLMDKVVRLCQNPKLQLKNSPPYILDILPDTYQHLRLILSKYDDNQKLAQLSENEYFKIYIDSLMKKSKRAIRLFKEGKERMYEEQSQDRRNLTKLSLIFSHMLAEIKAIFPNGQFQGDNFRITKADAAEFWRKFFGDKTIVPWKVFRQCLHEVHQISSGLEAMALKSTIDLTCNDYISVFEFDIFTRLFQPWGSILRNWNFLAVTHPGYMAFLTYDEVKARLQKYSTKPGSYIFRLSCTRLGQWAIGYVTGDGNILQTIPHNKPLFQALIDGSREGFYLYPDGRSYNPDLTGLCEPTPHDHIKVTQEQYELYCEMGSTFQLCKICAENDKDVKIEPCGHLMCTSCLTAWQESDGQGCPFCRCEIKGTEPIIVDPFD

As a reminder, the IC50 is the midpoint of a concentration-inhibition curve. On to `Cn1cnnc1CC1(c2cccc(N3Cc4c(cc(CN5CCCC(C)(F)C5)cc4C(F)(F)F)C3=O)c2)COC1` (stereo in doubt) [Compound 6, (S)-6-((3-fluoro-3-methylpiperidin-1-yl)methyl)-2-(3-(3-((4-methyl-4H-1,2,4-triazol-3-yl)methyl)oxetan-3-yl)phenyl)-4-(trifluoromethyl)isoindolin-1-one], for which the fold induction at 0.3 µM in test [1] (setting [3]) was below 10; in test [2] (setting [3]), above 1.39. The fold induction at 1 µM was above 15 in test [1] (setting [4]), below 0.33 in test [1] (setting [5]), above 1.39 in test [2] (setting [6]) and above 1.14 in test [2] (setting [7]). Moreover, the fold induction at 3 µM in test [1] (anti-CD3 alone) is 0.34 to 0.66; in test [2] (anti-CD3 alone), above 1.14. Moreover, at Cbl-b (setting [8]), the IC50 was 5.1 to 100 nM.
For the compound `C[C@H]1CCCN([C@@H](C)c2cc3c(c(C4CC4)n2)CN(c2cccc(C4(Cc5nncn5C)COC4)c2)C3=O)C1` [Compound 51, 4-cyclopropyl-2-(3-(3-((4-methyl-4H-1,2,4-triazol-3-yl)methyl)oxetan-3-yl)phenyl)-6-((S)-1-((S)-3-methylpiperidin-1-yl)ethyl)-2,3-dihydro-1H-pyrrolo[3,4-c]pyridin-1-one], the fold induction at 0.3 µM was above 15 in test [1] (setting [3]) and above 1.39 in test [2] (setting [3]). Further, the fold induction at 1 µM in test [1] (setting [4]) is above 15; in test [1] (setting [5]) it was above 0.66; in test [2] (setting [6]) it was above 1.39; in test [2] (setting [7]) it was above 1.14. Also, the fold induction at 3 µM in test [1] (anti-CD3 alone) was above 0.66; in test [2] (anti-CD3 alone), above 1.14. Moreover, at Cbl-b (setting [8]), the IC50 is below 1 nM.
As to `C[C@@H]1CCCN(Cc2cc3c(c(C(F)(F)F)c2)CN(c2cccc(C4(Cc5nncn5C)COC4)c2)C3=O)C1` [Compound 3, (R)-2-(3-(3-((4-methyl-4H-1,2,4-triazol-3-yl)methyl)oxetan-3-yl)phenyl)-6-((3-methylpiperidin-1-yl)methyl)-4-(trifluoromethyl)isoindolin-1-one], the results for the fold induction at 0.3 µM in test [1] (setting [3]) and in test [2] (setting [3]) were 11 to 15 and 1.25 to 1.39, respectively. In addition, the fold induction at 1 µM in test [1] (setting [4]) is above 15; in test [1] (setting [5]), 0.34 to 0.66; in test [2] (setting [6]) it was 1.25 to 1.39; in test [2] (setting [7]), 1.05 to 1.14. Further, the fold induction at 3 µM in test [1] (anti-CD3 alone) fell in the range of 0.34 to 0.66; in test [2] (anti-CD3 alone), 1.05 to 1.14. The IC50 at Cbl-b (setting [9]) and at Cbl-b (setting [10]) was 1 to 5 nM each time.
As for `C[C@H]1C[C@@H](CO)CN(Cc2cc3c(c(C(F)(F)F)c2)CN(c2cccc(C4(Cc5nncn5C)COC4)c2)C3=O)C1` (relative stereo) [Compound 23, cis-6-{[3-(hydroxymethyl)-5-methylpiperidin-1-yl]methyl}-2-(3-{3-[(4-methyl-1,2,4-triazol-3-yl)methyl]oxetan-3-yl}phenyl)-4-(trifluoromethyl)-3H-isoindol-1-one], the fold induction at 0.3 µM in test [1] (setting [3]) is above 15; in test [2] (setting [3]), above 1.39. In addition, the fold induction at 1 µM in test [1] (setting [4]) was above 15; in test [1] (setting [5]) it was above 0.66; in test [2] (setting [6]) it was above 1.39; in test [2] (setting [7]), 1.05 to 1.14. Moreover, the fold induction at 3 µM in test [1] (anti-CD3 alone) is above 0.66; in test [2] (anti-CD3 alone), 1.05 to 1.14. For the same compound, the IC50 at Cbl-b (setting [8]) and at Cbl-b (setting [10]) was below 1 nM each time.
As for `Cn1cnnc1CC1(c2cccc(N3Cc4c(cc(CN5CCC(F)(F)[C@@]6(CCOC6)C5)cc4C(F)(F)F)C3=O)c2)COC1` [Compound 14, (S)-6-((10,10-difluoro-2-oxa-7-azaspiro[4.5]decan-7-yl)methyl)-2-(3-(3-((4-methyl-4H-1,2,4-triazol-3-yl)methyl)oxetan-3-yl)phenyl)-4-(trifluoromethyl)isoindolin-1-one], the fold induction at 0.3 µM is below 10 in test [1] (setting [3]) and below 1.24 in test [2] (setting [3]). Further, the fold induction at 1 µM in test [1] (setting [4]) is 11 to 15; in test [1] (setting [5]), 0.34 to 0.66; in test [2] (setting [6]), below 1.24; in test [2] (setting [7]), 1.05 to 1.14. Further, the fold induction at 3 µM in test [1] (anti-CD3 alone) was 0.34 to 0.66; in test [2] (anti-CD3 alone), below 1.04. The IC50 at Cbl-b (setting [9]) lay in the range of 1 to 5 nM.
Consider `C[C@H]1CN(Cc2cc3c(c(C(F)(F)F)c2)CN(c2cccc(C4(Cc5nncn5C)COC4)c2)C3=O)CCC1(F)F` [Compound 9, (S)-6-((4,4-difluoro-3-methylpiperidin-1-yl)methyl)-2-(3-(3-((4-methyl-4H-1,2,4-triazol-3-yl)methyl)oxetan-3-yl)phenyl)-4-(trifluoromethyl)isoindolin-1-one], for which the fold induction at 0.3 µM in test [1] (setting [3]) was in the range of 11 to 15; in test [2] (setting [3]), 1.25 to 1.39. Besides, the fold induction at 1 µM in test [1] (setting [4]) is above 15; in test [1] (setting [5]) it was 0.34 to 0.66; in test [2] (setting [6]), above 1.39; in test [2] (setting [7]), above 1.14. Moreover, the fold induction at 3 µM in test [1] (anti-CD3 alone) is 0.34 to 0.66; in test [2] (anti-CD3 alone) it was above 1.14. The half-maximal inhibitory concentration (IC50) at Cbl-b (setting [9]) lay within 5.1 to 100 nM.
On to `Cn1cnnc1CC1(c2cccc(N3Cc4c(cc(CN5CCC(F)(F)[C@H](C#N)C5)cc4C(F)(F)F)C3=O)c2)COC1` [Compound 11, (S)-4,4-difluoro-1-((2-(3-(3-((4-methyl-4H-1,2,4-triazol-3-yl)methyl)oxetan-3-yl)phenyl)-3-oxo-7-(trifluoromethyl)isoindolin-5-yl)methyl)piperidine-3-carbonitrile], for which the figures for the fold induction at 0.3 µM in test [1] (setting [3]) and in test [2] (setting [3]) were below 10 and 1.25 to 1.39, respectively. In addition, the fold induction at 1 µM was 11 to 15 in test [1] (setting [4]), below 0.33 in test [1] (setting [5]), 1.25 to 1.39 in test [2] (setting [6]) and below 1.04 in test [2] (setting [7]). For the same compound, the results for the fold induction at 3 µM in test [1] (anti-CD3 alone) and in test [2] (anti-CD3 alone) were below 0.33 and below 1.04, respectively. Moreover, the IC50 at Cbl-b (setting [9]) and at Cbl-b (setting [10]) was 1 to 5 nM each time.
In the case of `CCNc1cc(C2(Cc3nncn3C)COC2)cc(N2Cc3c(cc(CN4CCC(F)(F)[C@H](C)C4)nc3C3CC3)C2=O)n1` [Compound 42, (R)-4-cyclopropyl-6-((4,4-difluoro-3-methylpiperidin-1-yl)methyl)-2-(6-(ethylamino)-4-(3-((4-methyl-4H-1,2,4-triazol-3-yl)methyl)oxetan-3-yl)pyridin-2-yl)-2,3-dihydro-1H-pyrrolo[3,4-c]pyridin-1-one], the figures for the fold induction at 0.3 µM in test [1] (setting [3]) and in test [2] (setting [3]) were above 15 and above 1.39, respectively. The fold induction at 1 µM was above 15 in test [1] (setting [4]), above 0.66 in test [1] (setting [5]), above 1.39 in test [2] (setting [6]) and above 1.14 in test [2] (setting [7]). Further, the fold induction at 3 µM in test [1] (anti-CD3 alone) was above 0.66; in test [2] (anti-CD3 alone) it was above 1.14. Moreover, on Cbl-b (setting [8]), the IC50 is 1 to 5 nM.
In the case of `CCNc1cc(C2(Cc3nncn3C)COC2)cc(N2Cc3c(cc(CN4CCC(F)(F)[C@H](C)C4)cc3C(F)(F)F)C2=O)n1` [Compound 27, (R)-6-((4,4-difluoro-3-methylpiperidin-1-yl)methyl)-2-(6-(ethylamino)-4-(3-((4-methyl-4H-1,2,4-triazol-3-yl)methyl)oxetan-3-yl)pyridin-2-yl)-4-(trifluoromethyl)iso indolin-1-one], the fold induction at 0.3 µM is above 15 in test [1] (setting [3]) and below 1.24 in test [2] (setting [3]). For the same compound, the fold induction at 1 µM in test [1] (setting [4]) was above 15; in test [1] (setting [5]), above 0.66; in test [2] (setting [6]), below 1.24; in test [2] (setting [7]), below 1.04. Also, the fold induction at 3 µM is above 0.66 in test [1] (anti-CD3 alone) and below 1.04 in test [2] (anti-CD3 alone). Besides, the concentration for half-maximal inhibition (IC50) on Cbl-b (setting [9]) and on Cbl-b (setting [10]) was 5.1 to 100 nM in each case.
